This note sets out measurements from PubChem BioAssay (NCI).

Each structure is given as a SMILES string.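 Where inhibition never reached the appropriate level, the endpoint shown equals the highest concentration tested. Otherwise, values were interpolated linearly from a five-concentration, 48-hour dose response in 96-well plates. GI50 marks 50% less growth. Definition used: TGI = concentration required for complete inhibition of growth.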

Test systems include COLO 205 colon; MOLT-4 leukemia; M14 melanoma; SK-MEL-5 melanoma; PC-3 prostate; SK-MEL-28 melanoma; NCI-H226 lung; A549 NSCLC; HS 578T breast; OVCAR-8 ovarian.
Common to all, as to assay: NCI anticancer screen, dose series, 48 h

With `C/C=C\C(C)=C/C(C)C(=O)CC(O)CC1CC(=O)NC(=O)C1` (stereo not drawn), the TGI was over 100 µM in the assay on COLO 205 colon; over 28.2 µM in the assay on MOLT-4 leukemia; over 100 µM in the assay with M14 melanoma; over 100 µM in the assay on SK-MEL-5 melanoma; over 100 µM in the assay on PC-3 prostate; over 100 µM in the assay with SK-MEL-28 melanoma. In addition, the TGI was over 100 µM in the assay with NCI-H226 lung, over 100 µM in the assay with A549 NSCLC, 62.5 µM in the assay on HS 578T breast and 98.8 µM with OVCAR-8 ovarian.
Regarding `CCS(=O)(=O)Nc1ccc(Oc2ccc(F)cc2F)c(-c2cn(C)c(=O)c3[nH]ccc23)c1`, the GI50 in the assay with COLO 205 colon was under 10 nM; with MOLT-4 leukemia it was 408 nM; in the assay with M14 melanoma, under 13.8 nM; in the assay on SK-MEL-5 melanoma it was 72.7 nM; in the assay with PC-3 prostate it was 65.6 nM; with SK-MEL-28 melanoma it was 1640 nM. Further, the GI50 was 2460 nM with NCI-H226 lung, 152 nM with A549 NSCLC, under 18.3 nM in the assay with HS 578T breast and 253 nM in the assay with OVCAR-8 ovarian. Besides, the TGI with COLO 205 colon was determined as 6.29 µM; in the assay on MOLT-4 leukemia, 15.6 µM; in the assay with M14 melanoma it was 17 µM; in the assay on SK-MEL-5 melanoma, 7.29 µM; with PC-3 prostate it was 49.4 µM; in the assay with SK-MEL-28 melanoma it was 21 µM. Moreover, the TGI turned out to be 20.2 µM in the assay on NCI-H226 lung, 28.1 µM in the assay with A549 NSCLC, 36.5 µM in the assay on HS 578T breast and 43.1 µM in the assay with OVCAR-8 ovarian.
With `CCCCCCCCCCCCOC1C(C(COC2OC(C(O)CO)C3OC(C)(C)OC23)OC(=O)Nc2ccc([N+](=O)[O-])cc2)OC2OC(C)(C)OC21` (stereo not drawn), the GI50 with COLO 205 colon is 7280 nM; in the assay with M14 melanoma it was 1810 nM; in the assay on SK-MEL-5 melanoma it was 1710 nM; with PC-3 prostate it was 2420 nM; in the assay with SK-MEL-28 melanoma, 9840 nM; with NCI-H226 lung, 2980 nM. Further, the results for the GI50 in the assay on A549 NSCLC, with HS 578T breast and in the assay with OVCAR-8 ovarian were 3360 nM, 1880 nM and 3590 nM, respectively. Further, the TGI with COLO 205 colon was 23.9 µM; in the assay with M14 melanoma, 3.44 µM; in the assay on SK-MEL-5 melanoma, 3.11 µM; in the assay with PC-3 prostate it was 5.63 µM; with SK-MEL-28 melanoma, 22.7 µM; in the assay on NCI-H226 lung, 11.2 µM. The values for the TGI in the assay on A549 NSCLC, in the assay with HS 578T breast and in the assay with OVCAR-8 ovarian were 10.7 µM, 3.74 µM and 14.5 µM, respectively.
Turning to `Cn1c([N+](=O)[O-])cnc1/C=C1\Oc2ccc(Cl)cc2C1=O`, the GI50 is 800 nM in the assay with COLO 205 colon; 320 nM with MOLT-4 leukemia; 636 nM in the assay on M14 melanoma; 727 nM with SK-MEL-5 melanoma; 1120 nM in the assay with PC-3 prostate; 1140 nM in the assay with SK-MEL-28 melanoma. In addition, the GI50 in the assay with NCI-H226 lung was 1640 nM; with A549 NSCLC, 1950 nM; in the assay on HS 578T breast, 1830 nM; with OVCAR-8 ovarian, 330 nM. Besides, the TGI in the assay with COLO 205 colon was determined as 3.15 µM; with MOLT-4 leukemia, 3.32 µM; in the assay on M14 melanoma, 4.26 µM; in the assay with SK-MEL-5 melanoma it was 2.14 µM; in the assay with PC-3 prostate, 7.1 µM; with SK-MEL-28 melanoma, 5.14 µM. In addition, the values for the TGI with NCI-H226 lung, with A549 NSCLC and with HS 578T breast were 4.64 µM, 5.88 µM and over 24.1 µM, respectively.
For `O=C1/C(=C/c2ccc([N+](=O)[O-])s2)Oc2ccc(Cl)cc21`, the GI50 is 527 nM in the assay on COLO 205 colon; 371 nM in the assay with MOLT-4 leukemia; 512 nM in the assay on M14 melanoma; 343 nM with SK-MEL-5 melanoma; 216 nM in the assay with PC-3 prostate; 336 nM in the assay on SK-MEL-28 melanoma. Besides, the GI50 with NCI-H226 lung was 1390 nM; in the assay on A549 NSCLC it was 533 nM; with HS 578T breast, 372 nM; in the assay with OVCAR-8 ovarian it was 330 nM. The TGI was found to be 1.36 µM in the assay with COLO 205 colon; 2.47 µM in the assay with MOLT-4 leukemia; 1.52 µM with M14 melanoma; 0.86 µM with SK-MEL-5 melanoma; 0.593 µM in the assay with PC-3 prostate; 0.881 µM with SK-MEL-28 melanoma. For the same compound, the TGI with NCI-H226 lung was 3.93 µM; in the assay with A549 NSCLC, 2.45 µM; in the assay with HS 578T breast, over 100 µM; in the assay with OVCAR-8 ovarian, 4.91 µM.
As to `COc1ccc(/C(C)=C(\c2ccc(Cl)cc2)c2ccc(OCCN3CCCCC3)cc2)cc1F`, the GI50 in the assay on COLO 205 colon was 1750 nM; in the assay with MOLT-4 leukemia, 3400 nM; in the assay with M14 melanoma it was 2610 nM; with SK-MEL-5 melanoma it was 2760 nM; in the assay with PC-3 prostate, 2670 nM; in the assay on SK-MEL-28 melanoma, 2670 nM. Also, the GI50 with NCI-H226 lung is 4350 nM; in the assay on A549 NSCLC, 4430 nM; with HS 578T breast, 2830 nM; in the assay with OVCAR-8 ovarian, 4110 nM. Also, the TGI in the assay with COLO 205 colon was 5.25 µM; in the assay on MOLT-4 leukemia, 11.3 µM; with M14 melanoma it was 6.17 µM; in the assay on SK-MEL-5 melanoma it was 5.1 µM; in the assay with PC-3 prostate, 7.47 µM; in the assay with SK-MEL-28 melanoma, 5.3 µM. For the same compound, the TGI with NCI-H226 lung is over 16.7 µM; with A549 NSCLC it was over 16.7 µM; in the assay with HS 578T breast, 6.78 µM; with OVCAR-8 ovarian, 12.4 µM.
For `CC(=O)OC1C(OC/C2=C/C3[C@@H](C(C)C)CC=C(C)[C@@H]3CC(OC(=O)/C=C/c3cn(C)cn3)[C@]3(C)C=C[C@@]2(O)O3)OCC(O)C1O` (stereo partly drawn), the GI50 in the assay on COLO 205 colon was 11.2 nM; with MOLT-4 leukemia it was 41.5 nM; in the assay with SK-MEL-5 melanoma it was 16.5 nM; in the assay on PC-3 prostate, 27.1 nM; with SK-MEL-28 melanoma it was 38.9 nM; with A549 NSCLC, 20.6 nM. Besides, the results for the GI50 in the assay with HS 578T breast and in the assay with OVCAR-8 ovarian were 8.31 nM and 44.3 nM, respectively. The TGI with COLO 205 colon is 0.0975 µM; in the assay with MOLT-4 leukemia it was over 50 µM; with PC-3 prostate, over 50 µM; in the assay with SK-MEL-28 melanoma, over 50 µM; with NCI-H226 lung, over 50 µM; with A549 NSCLC, over 50 µM. Moreover, the TGI with HS 578T breast was 0.035 µM; in the assay on OVCAR-8 ovarian, over 50 µM.
Regarding `Cc1ccc(S(=O)(=O)NC(CCCCN)C(=O)CCl)cc1` (stereo not drawn), the GI50 in the assay with COLO 205 colon is 41100 nM; in the assay on MOLT-4 leukemia, 86600 nM; with M14 melanoma, over 100000 nM; in the assay with SK-MEL-5 melanoma, 47800 nM; in the assay with PC-3 prostate, 52600 nM; with SK-MEL-28 melanoma it was over 100000 nM. Besides, the GI50 is 79900 nM in the assay with NCI-H226 lung, over 100000 nM with A549 NSCLC, 40900 nM in the assay with HS 578T breast and over 100000 nM in the assay with OVCAR-8 ovarian. Besides, the TGI with COLO 205 colon, in the assay on MOLT-4 leukemia, in the assay on M14 melanoma, with SK-MEL-5 melanoma, in the assay on PC-3 prostate and with SK-MEL-28 melanoma was over 100 µM in each case. Besides, the TGI in the assay on NCI-H226 lung, in the assay with A549 NSCLC, in the assay with HS 578T breast and with OVCAR-8 ovarian was over 100 µM each time.
